In ChEMBL document CHEMBL5252552, “Defined concatenated α6α1β3γ2 GABAA receptor constructs reveal dual action of pyrazoloquinolinone allosteric modulators” (Bioorg Med Chem, 2019):

Experiments:
[1] = target: T1, Gamma-aminobutyric acid receptor subunit alpha-1/alpha-6/beta-3/gamma-2 (Rattus norvegicus) (UniProt P18508+P30191+P62813+P63079); experiment: Positive allosteric modulation of rat recombinant GABAA gamma2beta3alpha1-beta3alpha6 receptor expressed in Xenopus laevis oocytes assessed as maximal current at -80 mV holding potential under more potent phase in presence of GABA EC1 to 1.5 by two-electrode voltage-clamp assay relative to control; type: cell-based; details: Oocyte
[2] = target: T2, Gamma-aminobutyric acid receptor subunit alpha-6/beta-3/gamma-2 (Rattus norvegicus, UniProt P18508+P30191+P63079); experiment: Positive allosteric modulation of rat recombinant GABAA alpha6beta3gamma2 receptor expressed in Xenopus laevis oocytes assessed as increase in GABA-induced current amplitude at -80 mV holding potential under more potent phase in presence of GABA EC1 to 1.5 by two-electrode voltage-clamp assay; type: cell-based, Oocyte
T2 sequence (P18508 whole entry): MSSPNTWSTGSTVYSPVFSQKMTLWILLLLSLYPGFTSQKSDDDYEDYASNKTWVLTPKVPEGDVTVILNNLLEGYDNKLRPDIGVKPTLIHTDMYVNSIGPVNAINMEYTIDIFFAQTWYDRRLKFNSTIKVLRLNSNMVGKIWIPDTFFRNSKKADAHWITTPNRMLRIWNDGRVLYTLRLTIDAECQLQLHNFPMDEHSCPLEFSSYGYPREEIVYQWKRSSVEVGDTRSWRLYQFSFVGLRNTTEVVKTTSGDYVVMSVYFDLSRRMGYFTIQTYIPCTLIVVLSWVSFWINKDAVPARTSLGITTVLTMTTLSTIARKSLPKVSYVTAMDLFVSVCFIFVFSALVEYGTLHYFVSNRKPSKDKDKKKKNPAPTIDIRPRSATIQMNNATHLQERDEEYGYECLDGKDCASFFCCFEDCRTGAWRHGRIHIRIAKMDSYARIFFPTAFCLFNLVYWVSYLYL
T2 sequence (P30191 whole entry): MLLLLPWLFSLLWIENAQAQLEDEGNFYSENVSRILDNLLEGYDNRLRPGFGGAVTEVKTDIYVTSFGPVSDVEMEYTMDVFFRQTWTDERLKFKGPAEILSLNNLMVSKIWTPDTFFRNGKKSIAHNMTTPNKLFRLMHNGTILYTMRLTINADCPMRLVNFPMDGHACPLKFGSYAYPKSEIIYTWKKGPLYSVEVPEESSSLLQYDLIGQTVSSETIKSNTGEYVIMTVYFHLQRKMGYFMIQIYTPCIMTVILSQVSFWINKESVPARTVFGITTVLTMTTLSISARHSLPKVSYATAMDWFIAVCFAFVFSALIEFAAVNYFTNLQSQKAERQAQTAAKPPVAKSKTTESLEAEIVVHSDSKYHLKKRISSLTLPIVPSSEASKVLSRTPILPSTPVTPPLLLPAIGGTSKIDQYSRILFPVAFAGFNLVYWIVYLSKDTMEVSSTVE
T2 sequence (P63079 whole entry): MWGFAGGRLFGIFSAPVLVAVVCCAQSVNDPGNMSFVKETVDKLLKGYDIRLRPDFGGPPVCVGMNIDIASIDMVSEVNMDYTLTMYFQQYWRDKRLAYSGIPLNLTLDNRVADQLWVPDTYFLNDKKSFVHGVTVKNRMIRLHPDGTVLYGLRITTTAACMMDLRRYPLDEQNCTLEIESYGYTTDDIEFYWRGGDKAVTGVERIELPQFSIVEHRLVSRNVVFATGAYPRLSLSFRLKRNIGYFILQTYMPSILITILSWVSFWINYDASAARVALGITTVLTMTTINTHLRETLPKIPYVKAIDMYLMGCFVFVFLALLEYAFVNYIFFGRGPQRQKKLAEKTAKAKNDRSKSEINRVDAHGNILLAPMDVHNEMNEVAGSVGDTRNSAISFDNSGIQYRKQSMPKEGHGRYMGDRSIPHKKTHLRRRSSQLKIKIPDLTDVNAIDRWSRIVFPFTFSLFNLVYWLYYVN

[3] = target: T2, Gamma-aminobutyric acid receptor subunit alpha-6/beta-3/gamma-2; experiment: (§1) Positive allosteric modulation of rat recombinant GABAA alpha6beta3gamma2 receptor expressed in Xenopus laevis oocytes assessed as increase in GABA-induced current amplitude at -80 mV holding potential under less potent phase in presence of GABA EC1 to 1.5 by two-electrode voltage-clamp assay; type: cell-based, Oocyte
[4] = target: T3, Gamma-aminobutyric acid receptor subunit alpha-1/beta-3/gamma-2 (Rattus norvegicus) (UniProt P18508+P62813+P63079); experiment: Positive allosteric modulation of rat recombinant GABAA alpha1beta3alpha1-gamma2beta3 receptor expressed in Xenopus laevis oocytes assessed as maximal efficacy at -80 mV holding potential at 100 nM in presence of GABA EC1 to 1.5 by two-electrode voltage-clamp assay; type: cell-based; details: Oocyte
[5] = target: T3, Gamma-aminobutyric acid receptor subunit alpha-1/beta-3/gamma-2 (Rattus norvegicus); experiment: Positive allosteric modulation of rat recombinant GABAA alpha1beta3alpha1-gamma2beta3 receptor expressed in Xenopus laevis oocytes assessed as maximal efficacy at -80 mV holding potential at 10 uM in presence of GABA EC1 to 1.5 by two-electrode voltage-clamp assay; type: cell-based; details: Oocyte, filed as positive allosteric modulator
[6] = target: T4, Gamma-aminobutyric acid receptor subunit alpha-6/beta-3/gamma-2 (Rattus norvegicus) (UniProt P18508+P30191+P63079); experiment: Positive allosteric modulation of rat recombinant GABAA alpha6beta3alpha6-gamma2beta3 receptor expressed in Xenopus laevis oocytes assessed as maximal efficacy at -80 mV holding potential at 1 nM in presence of GABA EC1 to 1.5 by two-electrode voltage-clamp assay; type: cell-based; details: Oocyte
[7] = target: Gamma-aminobutyric acid receptor subunit alpha-1/beta-3/gamma-2 (Rattus norvegicus, UniProt P18508+P62813+P63079); experiment: Positive allosteric modulation of rat recombinant GABAA alpha1beta3gamma2 receptor expressed in Xenopus laevis oocytes assessed as increase in GABA-induced current amplitude at -80 mV holding potential under less potent phase in presence of GABA EC1 to 1.5 by two-electrode voltage-clamp assay; type: cell-based, Oocyte
Gamma-aminobutyric acid receptor subunit alpha-1/beta-3/gamma-2, sequence (P18508 whole entry): as the sequence (P18508 whole entry) above
Gamma-aminobutyric acid receptor subunit alpha-1/beta-3/gamma-2, sequence (P62813 whole entry): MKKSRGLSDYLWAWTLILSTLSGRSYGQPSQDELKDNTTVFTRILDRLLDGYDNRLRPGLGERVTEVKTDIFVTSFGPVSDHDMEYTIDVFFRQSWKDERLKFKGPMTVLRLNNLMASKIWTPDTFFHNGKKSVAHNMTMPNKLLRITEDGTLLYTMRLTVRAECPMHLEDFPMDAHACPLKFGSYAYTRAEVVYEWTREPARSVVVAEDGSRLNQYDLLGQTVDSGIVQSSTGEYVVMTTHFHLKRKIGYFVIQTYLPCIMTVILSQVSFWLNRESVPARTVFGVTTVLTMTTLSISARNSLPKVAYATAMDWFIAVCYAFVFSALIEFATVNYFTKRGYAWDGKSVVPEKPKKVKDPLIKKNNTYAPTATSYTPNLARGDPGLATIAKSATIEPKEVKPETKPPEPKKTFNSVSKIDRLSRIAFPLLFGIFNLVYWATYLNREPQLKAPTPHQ
Gamma-aminobutyric acid receptor subunit alpha-1/beta-3/gamma-2, sequence (P63079 whole entry): as the sequence (P63079 whole entry) above

[8] = target: T3, Gamma-aminobutyric acid receptor subunit alpha-1/beta-3/gamma-2 (Rattus norvegicus); experiment: Positive allosteric modulation of rat recombinant GABAA alpha1beta3gamma2 receptor expressed in Xenopus laevis oocytes assessed as maximal efficacy at -80 mV holding potential at 30 uM in presence of GABA EC1 to 1.5 by two-electrode voltage-clamp assay; type: cell-based; details: Oocyte, filed as positive allosteric modulator
[9] = target: T1, Gamma-aminobutyric acid receptor subunit alpha-1/alpha-6/beta-3/gamma-2 (Rattus norvegicus); experiment: Positive allosteric modulation of rat recombinant GABAA alpha6beta3alpha1-gamma2beta3 receptor expressed in Xenopus laevis oocytes assessed as maximal current at -80 mV holding potential under less potent phase in presence of GABA EC1 to 1.5 by two-electrode voltage-clamp assay relative to control; type: cell-based; details: Oocyte, filed as positive allosteric modulator
[10] = target: T4, Gamma-aminobutyric acid receptor subunit alpha-6/beta-3/gamma-2 (Rattus norvegicus); experiment: Positive allosteric modulation of rat recombinant GABAA alpha6beta3gamma2 receptor expressed in Xenopus laevis oocytes assessed as maximal current at -80 mV holding potential under less potent phase in presence of GABA EC1 to 1.5 by two-electrode voltage-clamp assay relative to control; type: cell-based; details: Oocyte, filed as positive allosteric modulator
[11] = target: T3, Gamma-aminobutyric acid receptor subunit alpha-1/beta-3/gamma-2 (Rattus norvegicus); experiment: Positive allosteric modulation of rat recombinant GABAA alpha1beta3gamma2 receptor expressed in Xenopus laevis oocytes assessed as maximal efficacy at -80 mV holding potential at 1 uM in presence of GABA EC1 to 1.5 by two-electrode voltage-clamp assay; type: cell-based; details: Oocyte
[12] = target: T4, Gamma-aminobutyric acid receptor subunit alpha-6/beta-3/gamma-2 (Rattus norvegicus); experiment: Positive allosteric modulation of rat recombinant GABAA alpha6beta3alpha6-gamma2beta3 receptor expressed in Xenopus laevis oocytes assessed as maximal efficacy at -80 mV holding potential at 30 uM in presence of GABA EC1 to 1.5 by two-electrode voltage-clamp assay; type: cell-based; details: Oocyte, filed as positive allosteric modulator
[13] = target: T3, Gamma-aminobutyric acid receptor subunit alpha-1/beta-3/gamma-2 (Rattus norvegicus); experiment: Positive allosteric modulation of rat recombinant GABAA alpha1beta3alpha1-gamma2beta3 receptor expressed in Xenopus laevis oocytes assessed as maximal efficacy at -80 mV holding potential at 10 nM in presence of GABA EC1 to 1.5 by two-electrode voltage-clamp assay; type: cell-based; details: Oocyte
[14] = target: T2, Gamma-aminobutyric acid receptor subunit alpha-6/beta-3/gamma-2; experiment: as §1, with “alpha6beta3alpha6-gamma2beta3” for “alpha6beta3gamma2”; type: cell-based, Oocyte
[15] = target: T4, Gamma-aminobutyric acid receptor subunit alpha-6/beta-3/gamma-2 (Rattus norvegicus); experiment: Positive allosteric modulation of rat recombinant GABAA alpha6beta3alpha6-gamma2beta3 receptor expressed in Xenopus laevis oocytes assessed as maximal efficacy at -80 mV holding potential at 300 nM in presence of GABA EC1 to 1.5 by two-electrode voltage-clamp assay; type: cell-based; details: Oocyte, filed as positive allosteric modulator
[16] = target: T1, Gamma-aminobutyric acid receptor subunit alpha-1/alpha-6/beta-3/gamma-2 (Rattus norvegicus); experiment: Positive allosteric modulation of rat recombinant GABAA gamma2beta3alpha1-beta3alpha6 receptor expressed in Xenopus laevis oocytes assessed as maximal efficacy at -80 mV holding potential at 10 nM in presence of GABA EC1 to 1.5 by two-electrode voltage-clamp assay; type: cell-based; details: Oocyte
[17] = target: T1, Gamma-aminobutyric acid receptor subunit alpha-1/alpha-6/beta-3/gamma-2 (Rattus norvegicus); experiment: Positive allosteric modulation of rat recombinant GABAA alpha6beta3alpha1-gamma2beta3 receptor expressed in Xenopus laevis oocytes assessed as maximal efficacy at -80 mV holding potential at 3 uM in presence of GABA EC1 to 1.5 by two-electrode voltage-clamp assay; type: cell-based; details: Oocyte, filed as positive allosteric modulator
[18] = target: T4, Gamma-aminobutyric acid receptor subunit alpha-6/beta-3/gamma-2 (Rattus norvegicus); experiment: Positive allosteric modulation of rat recombinant GABAA alpha6beta3gamma2 receptor expressed in Xenopus laevis oocytes assessed as maximal efficacy at -80 mV holding potential at 30 nM in presence of GABA EC1 to 1.5 by two-electrode voltage-clamp assay; type: cell-based; details: Oocyte, filed as positive allosteric modulator
[19] = target: T1, Gamma-aminobutyric acid receptor subunit alpha-1/alpha-6/beta-3/gamma-2 (Rattus norvegicus); experiment: Positive allosteric modulation of rat recombinant GABAA alpha6beta3alpha1-gamma2beta3 receptor expressed in Xenopus laevis oocytes assessed as maximal efficacy at -80 mV holding potential at 30 nM in presence of GABA EC1 to 1.5 by two-electrode voltage-clamp assay; type: cell-based; details: Oocyte
[20] = target: T1, Gamma-aminobutyric acid receptor subunit alpha-1/alpha-6/beta-3/gamma-2 (Rattus norvegicus); experiment: Positive allosteric modulation of rat recombinant GABAA gamma2beta3alpha1-beta3alpha6 receptor expressed in Xenopus laevis oocytes assessed as maximal current at -80 mV holding potential under less potent phase in presence of GABA EC1 to 1.5 by two-electrode voltage-clamp assay relative to control; type: cell-based; details: Oocyte, filed as positive allosteric modulator
[21] = target: T1, Gamma-aminobutyric acid receptor subunit alpha-1/alpha-6/beta-3/gamma-2 (Rattus norvegicus); experiment: Positive allosteric modulation of rat recombinant GABAA alpha6beta3alpha1-gamma2beta3 receptor expressed in Xenopus laevis oocytes assessed as maximal efficacy at -80 mV holding potential at 300 nM in presence of GABA EC1 to 1.5 by two-electrode voltage-clamp assay; type: cell-based; details: Oocyte, filed as positive allosteric modulator
[22] = target: Gamma-aminobutyric acid receptor subunit alpha-1/alpha-6/beta-3/gamma-2 (Rattus norvegicus, UniProt P18508+P30191+P62813+P63079); experiment: as §1, with “alpha6beta3alpha1-gamma2beta3” for “alpha6beta3gamma2”; type: cell-based, Oocyte
Gamma-aminobutyric acid receptor subunit alpha-1/alpha-6/beta-3/gamma-2, sequence (P18508 whole entry): as the sequence (P18508 whole entry) above
Gamma-aminobutyric acid receptor subunit alpha-1/alpha-6/beta-3/gamma-2, sequence (P30191 whole entry): as the sequence (P30191 whole entry) above
Gamma-aminobutyric acid receptor subunit alpha-1/alpha-6/beta-3/gamma-2, sequence (P62813 whole entry): as the sequence (P62813 whole entry) above
Gamma-aminobutyric acid receptor subunit alpha-1/alpha-6/beta-3/gamma-2, sequence (P63079 whole entry): as the sequence (P63079 whole entry) above

COc1ccc(-n2nc3c4ccc(Br)cc4[nH]cc-3c2=O)cc1
%max [1]: 30%
EC50 [2]: 0.001 µM
EC50 [3]: 11 µM
Efficacy [4]: 8%
Efficacy [5]: 157%
Efficacy [6]: 5%
EC50 [7]: 6 µM
Efficacy [8]: 109%
%max [9]: 1060%
%max [10]: 580%
Efficacy [11]: 18%
Efficacy [12]: 570%
Efficacy [13]: 1%
EC50 [14]: 24 µM
Efficacy [15]: 124%
Efficacy [16]: 23%
Efficacy [17]: 363%
Efficacy [18]: 49%
Efficacy [19]: 8%
%max [20]: 230%
Efficacy [21]: 60%
EC50 [22]: 7 µM
